Here are results for 4 compounds from PubChem BioAssay AID651871 (Sanford-Burnham Center for Chemical Genomics, 2012).

Values joined by “and” are separate entries in the source; they are usually repeats but may differ in a detail not shown here. Equal values may be shown once. Active and inactive are the calls of the source.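 Rule for the calls: active = compound whose mean IC50 is 10 µM or lower in every cell protection panel where tested; inactive = the rest.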

One assay relates to H9c2. The experiment in a line: protection of cardiomyocytes from stress damage, SAR follow-up, cell-based, panel, H9c2 and HL-1, ATP luminescence, set 2 (AID 651871).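 Note: cells exposed to stressor for 2 h before ATP readout; potency for protection of cells against peroxide damage not for cytotoxicity.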 The settings on record: H9c2/HL-1 cardiomyocytes.
In a further assay the test system is HL-1. Described as above. The settings on record: H9c2/HL-1 cardiomyocytes.
[1] abbreviates: 2-deoxyglucose stress, with 2-deoxyglucose, mean of runs.
The mark [2] stands for this setting: H2O2 oxidative stress, with H2O2, mean of runs.

In the case of `COc1ccc2nc(-c3cc(OC)c(OC)c(OC)c3)cc(C(=O)NCC(=O)Nc3ccc(C(C)=O)cc3)c2c1`, the half-maximal inhibitory concentration (IC50) (in general, the midpoint of a concentration-inhibition curve) in the assay with H9c2 (setting [1]) is 3.87 µM; in the assay with H9c2 (setting [2]), 0.634 µM and 0.44 µM; in the assay on HL-1 (setting [1]), 4.3 µM; in the assay on HL-1 (setting [2]), 6.53 µM and 3.98 µM.
For the compound `CCOC(=O)c1cccc(NC(=O)CNC(=O)c2cc(-c3cc(OC)c(OC)c(OC)c3)nc3ccccc23)c1`, the concentration for half-maximal inhibition (IC50) is 2.72 µM in the assay on H9c2 (setting [1]), 0.28 µM with H9c2 (setting [2]), 2.9 µM with HL-1 (setting [1]) and 3.41 µM in the assay on HL-1 (setting [2]).
`COc1cc(-c2cc(C(=O)Nc3cccc(C(=O)NCc4ccccc4)c3)c3ccccc3n2)cc(OC)c1OC`: the IC50 with H9c2 (setting [2]) was 0.411 µM; in the assay with HL-1 (setting [2]) it was 3.97 µM.
`COc1ccc2c(c1OC)C(=O)N1c3ccccc3C(=O)N(Cc3cccc(Cl)c3Cl)C21` (centres undefined): the 50% inhibitory concentration (IC50) with H9c2 (setting [1]) was 4.57 µM and 6.37 µM and > 79 µM (inactive); in the assay with H9c2 (setting [2]), 0.215 µM and 0.391 µM and 11.7 µM (inactive); in the assay on HL-1 (setting [1]), 2.65 µM and 3.05 µM and > 79 µM (inactive); with HL-1 (setting [2]), > 79 µM (inactive).
